# Measurements as given in ChEMBL document CHEMBL3272031, “Inhibition of dihydrofolate reductase. Structure-activity correlations of quinazolines” (J Med Chem, 1976).
# Molecular target: Dihydrofolate reductase (Rattus norvegicus) (UniProt Q920D2)
row,SMILES,log(1/C)
1,Nc1nc(N)c2cc(Sc3ccc(Cl)c(Cl)c3)ccc2n1,7.96
2,Nc1nc2ccccc2c(=O)[nH]1,4.31
3,Nc1nc(O)c2cc(Sc3ccc4ccccc4c3)ccc2n1,7.35
4,Cc1cccc2nc(N)nc(N)c12,6.09
5,Nc1nc(S)nc2ccc(Sc3ccc4ccccc4c3)cc12,5.52
6,O=c1[nH]c(=O)c2cc(Sc3ccc4ccccc4c3)ccc2[nH]1,5.07
7,Nc1nc(N)c2c(Cl)c(NC(=O)CCc3ccc(Cl)cc3)ccc2n1,7.44
8,Nc1nc(N)c2c(Cl)c(NC(=O)Cc3ccc(Cl)c(Cl)c3)ccc2n1,7.62
9,Nc1nc(N)c2cc(C=O)ccc2n1,5
10,Nc1nc(N)c2c(Cl)c(N)ccc2n1,6.18
11,O=c1[nH]cnc2ccccc12,3.62
12,NCc1ccc2nc(N)nc(N)c2c1,5.03
13,Nc1nc(N)c2c(Cl)c(NC(=O)Cc3ccc(Cl)cc3)ccc2n1,7.92
14,Nc1nc(N)c2c(Cl)c(NC(=O)Cc3ccc4ccccc4c3)ccc2n1,8.3
15,Cc1c(NC(=O)Cc2ccc(Br)cc2)ccc2nc(N)nc(N)c12,7.49
16,Nc1ncnc2ccc([S+]([O-])c3ccc4ccccc4c3)cc12 (stereo unspecified),4.82
17,Nc1nc(N)c2c(/C=C/c3ccc4ccccc4c3)cccc2n1,5.28
18,Cc1c(NC(=O)C(Sc2ccc3ccccc3c2)C(C)C)ccc2nc(N)nc(N)c12 (stereo unspecified),7.68
19,Nc1nc(N)c2c(CSc3ccc(Cl)cc3)cccc2n1,7.7
20,CC(=O)Nc1nc(O)c2cc(S(=O)(=O)c3ccc4ccccc4c3)ccc2n1,6.11
21,Nc1nc(O)c2c(S(=O)(=O)c3ccc4ccccc4c3)cccc2n1,4.85
22,Cc1c(NC(=O)CSc2ccc3ccccc3c2)ccc2nc(N)nc(N)c12,8.27

row,SMILES,log(1/C)
1,Nc1nc(O)c2ccc(C(F)(F)F)cc2n1,4.35
2,Nc1nc(N)c2cc(S(=O)(=O)c3ccc4ccccc4c3)ccc2n1,8.4
3,Nc1nc(N)c2c(n1)CCCC2,5.13
4,Nc1ncnc2ccc(S(=O)(=O)c3ccc4ccccc4c3)cc12,5.47
5,Nc1nc(N)c2c(Cl)c(NC(=O)Cc3cccc(C(F)(F)F)c3)ccc2n1,7.64
6,Nc1nc(N)c2c(S(=O)(=O)c3ccc(Cl)c(Cl)c3)cccc2n1,4.24
7,Nc1nc(O)c2cc([S+]([O-])c3ccc4ccccc4c3)ccc2n1 (stereo unspecified),7.38
8,Nc1nc(S)c2ccccc2n1,4.37
9,Cc1c(NC(=O)Cc2ccc(Cl)c(Cl)c2)ccc2nc(N)nc(N)c12,7.77
10,Nc1nc(N)c2c(S(=O)(=O)c3ccc4ccccc4c3)cccc2n1,4.82
11,Nc1nc(N)c2c(Cl)c(NC(=O)COc3ccc(Cl)c(Cl)c3)ccc2n1,7.64
12,c1ccc2ncncc2c1,2.26
13,Nc1nc(N)c2cc(NC(=O)Cc3ccc(Cl)c(Cl)c3)ccc2n1,7.51
14,Nc1nc(N)c2cc([S+]([O-])c3ccc4ccccc4c3)ccc2n1 (stereo unspecified),8.15
15,Nc1nc(N)c2cc(CNC(=O)c3cccc(C(F)(F)F)c3)ccc2n1,6.59
16,Nc1nc(N)c2c([S+]([O-])c3ccc(Cl)c(Cl)c3)cccc2n1 (stereo unspecified),4.26
17,Nc1ncnc2ccc(Sc3ccc4ccccc4c3)cc12,4.68
18,Nc1nc(N)c2c([S+]([O-])c3ccc4ccccc4c3)cccc2n1 (stereo unspecified),4.35
19,Nc1nc(N)c2c(CCc3ccc4ccccc4c3)cccc2n1,7.7
20,CC(C(=O)Nc1ccc2nc(N)nc(N)c2c1Cl)c1ccccc1 (stereo unspecified),7.77
21,Nc1nc(O)nc2ccc(Sc3ccc4ccccc4c3)cc12,5.77
22,Nc1nc(S)nc2ccccc12,3.72

row,SMILES,log(1/C)
1,Nc1nc(O)c2c(n1)CCCC2,3.96
2,Cc1ccc2nc(N)nc(O)c2c1,4.44
3,Nc1nc(N)c2c(Cl)c(NC(=O)COc3ccc4ccccc4c3)ccc2n1,7.85
4,Nc1nc(N)c2c(Cl)c(Br)ccc2n1,7
5,Nc1nc(O)c2cc(S(=O)(=O)c3ccc(Cl)c(Cl)c3)ccc2n1,7.12
6,Nc1nc(N)c2c(Sc3ccc(Cl)c(Cl)c3)cccc2n1,6.8
7,Nc1nc(N)c2cc(NC(=O)Cc3ccc(Cl)cc3)ccc2n1,7.64
8,Cc1c(NC(=O)CCc2ccc(Cl)cc2)ccc2nc(N)nc(N)c12,7.48
9,Nc1nc(N)c2cc(Sc3ccc4ccccc4c3)ccc2n1,8.15
10,Cc1cccc2nc(N)nc(O)c12,4.8
11,Nc1ccc2nc(N)nc(N)c2c1,4.57
12,Nc1nc(S)c2cc(S(=O)(=O)c3ccc4ccccc4c3)ccc2n1,7.6
13,Nc1ncnc2ccccc12,3.09
14,Cc1c(NC(=O)Cc2cccc(C(F)(F)F)c2)ccc2nc(N)nc(N)c12,7.23
15,Nc1nc(N)c2c(Cl)c(NC(=O)Cc3cccc(Br)c3)ccc2n1,8.12
16,Nc1nc(N)c2cc(NC(=O)CCc3ccc(Cl)cc3)ccc2n1,7.33
17,Nc1nc(O)nc2ccccc12,4.02
18,Nc1nc(O)c2c(Cl)cccc2n1,4.66
19,Nc1nc(N)c2cc(Cl)ccc2n1,5.4
20,Cc1c(NC(=O)COc2ccc3ccccc3c2)ccc2nc(N)nc(N)c12,7.82
21,Nc1nc(O)c2c(Sc3ccc4ccccc4c3)cccc2n1,6.15
22,Cc1c(NC(=O)Cc2ccc3ccccc3c2)ccc2nc(N)nc(N)c12,8.38

row,SMILES,log(1/C)
1,Nc1nc(S)c2cc(Sc3ccc4ccccc4c3)ccc2n1,6.64
2,Sc1nc(S)c2cc(Sc3ccc4ccccc4c3)ccc2n1,5.05
3,Nc1nc(N)c2c(/C=C\c3ccc4ccccc4c3)cccc2n1,6.52
4,Nc1nc(N)c2cc(CNC(=O)c3ccc4ccccc4c3)ccc2n1,7
5,Nc1nc(N)c2cc(CNC(=O)c3ccc(Cl)c(Cl)c3)ccc2n1,7
6,Nc1nc(N)c2cc(S(=O)(=O)c3ccc(Cl)c(Cl)c3)ccc2n1,8.05
7,Nc1nc(N)c2c(Cl)cccc2n1,6.25
8,Nc1nc(N)c2cc(NC(=O)Cc3ccc4ccccc4c3)ccc2n1,8.3
9,Nc1nc(O)c2cc(Sc3ccc(Cl)c(Cl)c3)ccc2n1,6.92
10,Cc1c(NC(=O)Cc2cccc(Br)c2)ccc2nc(N)nc(N)c12,7.47
11,Nc1nc(N)c2cc(NC(=O)Cc3cccc(C(F)(F)F)c3)ccc2n1,7.02
12,O=c1[nH]c(=S)c2cc(Sc3ccc4ccccc4c3)ccc2[nH]1,5.24
13,CC(=O)Nc1nc(O)c2ccccc2n1,4.28
14,Nc1nc(N)c2c(Sc3ccc4ccccc4c3)cccc2n1,6.92
15,Nc1nc(O)c2cc(S(=O)(=O)c3ccc4ccccc4c3)ccc2n1,7.96
16,Nc1nc(N)c2cc(NCc3ccc(Cl)c(Cl)c3)ccc2n1,7.74
17,CC1CCc2nc(N)nc(O)c2C1 (stereo unspecified),4.26
18,Cc1ccc2nc(N)nc(N)c2c1,5.66
19,Oc1nc(S)nc2ccc(Sc3ccc4ccccc4c3)cc12,5
20,Nc1nc(N)c2cc(Sc3cccc(C(F)(F)F)c3)ccc2n1,7.44
